US20040029208A1, “Assay method and kit for testing biological material for exposure to stress using biomarkers” (priority 2000, published 2004)

Assays:
Format in all cases: in vivo
Anagallis arvensis [1] = experiment: TLC plant biomarker pattern after herbicide spraying (greenhouse)
Procedure: (§1) The experiments were performed in the green-house at the National Environmental Research Institute, Silkeborg, Denmark. All the seeds needed light to germinate, and were sown at the soil surface in individual 11 cm pots. The soil used during the experiments contained: (SM Growing Mould (Growing medium by special soil (sphagnum) added clay granulate), 0-30 mm; grade of turnover 55-75; added per m^3: 3 kg lime (white chalk), 1.5 kg dolit chalk, 40 kg clay granulate; Fertilizer added granulate: NO3-N: 55.0 g; NH4-N: 65.0 g; P: 106.6 g; K: 224.0 g; Mg: 22 g; Micro nutrients added in chelate form, Mo in uorganic form: B-Boron: 1 g; Cu-copper: 6 g; Mn-Manganese: 3 g; Zinc-Zn: 3 g: Fe-iron: 6 g; Mo- molybdenum: 1.4 g).
(§2) During the experiments plants were watered from below, and the temperature in the green-house was maintained between 15° C. and 25° C. with variations due to external weather, and the photoperiod was 16th daylight. The green-house is divided into different units, which allowed for the separate maintenance of the control plants from the sprayed plants to avoid undesirable effects due to vapour drift.
(§3) Glyphosate (Roundup Bio (360 g L^−1) was supplied by Monsanto Denmark A/S. Recommended field dose=1,44 kg a.i. ha^−1. In all the experiments, an automatic sprayer (designed in Denmark by Jens Kristensen 1994) was used where the herbicide application is achieved by moving boom equipment with two ordinary hydraulic flat fan nozzles (Hardi 4110-16). Two pots per spray event were placed in the middle of the spray chamber at 50 cm distance from the nozzle, delivering 200 L of water per-hectare with a desired herbicide concentration (working pressure 2 bars; speed of spray boom=4.7 km h^−1). The spraying was performed starting with the lowest concentration first, progressing towards the highest concentration. Between each herbicide, the sprayer was thoroughly rinsed several times with water. The control plants were sprayed with water.
(§4) The fresh plant material was pressed using a hand press. The extract was immediately centrifuged. (3000 rpm) for 10 minutes. The supernatant was used for analysis. The extracts were kept cool or right above 0° C. during the test to avoid decomposition of biomarkers.
(§5) Freeze-dried plant material was crushed and 250 mg was extracted with 5.00 ml 75% ethanol in an ultrasonic bath for 2 hours. The temperature was kept <0° C. (using ice) during the extraction to avoid decomposition of biomarkers. The extract was centrifuged (3000 rpm) for 10 minutes. The supematant was used for analysis and were kept cool during the test to avoid decomposition of biomarkers.
(§6) The two extracts (freshtfresh ethanol) were applicated immediately on a TLC plate (10 μl on both TLC-Plate types (see below) using cool air-drying. The 75% ethanolic extract was applicated 10 μl on Silica-gel TLC-plates and 5 μl on Cellulose TLC-plates (see below). The fresh/fresh ethanolic extractsare recommended to perform if fresh plant material are to be analysed (field-test). The freeze-dried or frozen plant material extraction Is recommended if the analysis are performed in the laboratory.
[…] Derivatisation: Stock solution 1:50% sulfuric acid in 96% ethanol; Stock solution 2: 2% vanillin in absolut alcohol; Derivatisation-solvent, Fresh produced before us, stock solution 1 and stock solution 2 (1:10); Aftercare: 120° C. in 2-3 min. The plate is valuated visually. The system detects higher alcoholics, phenolic compounds, steroids and etheric oils (Stahl 1969), terpenoids, phenyl propanolds, phenolic compounds (Wagner etea. 1984)
TLC-System 7: HPTLC-Alufolie Silica Gel 60 F2u, Merck 1.05548 (10×10 cm); 10 μl plant extracts plants exposed to glyphosate and control plants; eluted in n-butanol: acetic acid: water (4:1:5) (upper phase after 5 minutes shaking). Derivatisation: 0,5 g p-anisaldehyde diluted in 10 ml conc. acetic acid and 85 ml absolute alcohol is and 5 ml conc. sulfuric acid (added in the following row). The plate is heated to. […]

Centauréa cýanus [2] = experiment: as above
Plantágo lanceoláta [3] = experiment: as above
Procedure: as §1, §2, §3, §4, §5, §6
(§7) TLC-System 1: HPTLC-Alufolie Silica Gel 60 F254, Merck 1.05548 (10×10 cm); 10 μl plant extracts plants exposed to glyphosate and control plants; eluted in n-butanol acetic acid: water (4:1:5) (upper phase after 5 minutes shaking). Derivatisation: Stock solution 1:50% sulfuric acid in 96% ethanol; Stock solution 2: 2% vanillin in absolut alcohol; Derivatisation-solvent, Fresh produced before us, stock solution 1 and stock solution 2 (1:10); Aftercare: 120° C. in 2-3 min. The plate is valuated visually. The system detects higher alcoholics, phenolic compounds, steroids and etheric oils (Stahl 1969), terpenoids, phenyl propanolds, phenolic compounds (Wagner etea. 1984) […]

Anagallis arvensis [4] = experiment: Visual effect rating (0-9) after herbicide spraying; settings: at presence of TLC 7 biomarker
Description: (§8) Four, eight, sixteen and thirty two days after spraying, visual effects on plants were noted before harvest, using the rating chart described in Hamil. et al. (1977) and Boutin et al. (1993); a rating of zero indicates full growth and vigour, and a rating of nine indicates no growth/mortality.
(§9) The min. visual effect (VE) of the presence of plant biomarkers is rated as described by Hamil et al., (1977) and Boutin et al. (1993).

Centauréa cýanus [5] = experiment: as above
Description: as §8, §9

Lólium perénne [6] = experiment: as above
Description: as §8, §9

Plantágo lanceoláta [7] = experiment: as above
Description: as §8, §9

Lólium perénne [8] = experiment: TLC plant biomarker pattern after herbicide spraying (greenhouse)
Lólium perénne [9] = experiment: as above; settings: TLC 1 (non-specific compounds)
Procedure: as §1, §2, §3, §4, §5, §6, §7

[10] = at presence of TLC 4d biomarker

| Compound | Min. of label dose of herbicide with effect (Anagallis arvensis [1]; TLC 7 (non-specific compounds)) [%] | Min. of label dose of herbicide with effect (Centauréa cýanus [2]; TLC 2 (phenolic compounds)) [%] | Min. of label dose of herbicide with effect (Centauréa cýanus [2]; TLC 7 (non-specific compounds)) [%] | Min. of label dose of herbicide with effect (Centauréa cýanus [2]; TLC 4d (amino acids)) [%] | Min. of label dose of herbicide with effect (Plantágo lanceoláta [3]; TLC 2 (phenolic compounds)) [%] | Min. of label dose of herbicide with effect (Plantágo lanceoláta [3]; TLC 6 (lipids and terpens)) [%] | Min. of label dose of herbicide with effect (Plantágo lanceoláta [3]; TLC 4d (amino acids)) [%] | Min. visual effect (Anagallis arvensis [4]) | Min. visual effect (Lólium perénne [6]; at presence of TLC 7 biomarker) | Min. visual effect (Lólium perénne [6]; [10]) | Min. visual effect (Plantágo lanceoláta [7]; at presence of TLC 2 biomarker) | Min. visual effect (Plantágo lanceoláta [7]; at presence of TLC 6 biomarker) | Min. of label dose of herbicide with effect (Lólium perénne [8]; TLC 6 (lipids and terpens)) [%] | Min. of label dose of herbicide with effect (Lólium perénne [8]; TLC 7 (non-specific compounds)) [%] | further results |
| --- | --- | --- | --- | --- | --- | --- | --- | --- | --- | --- | --- | --- | --- | --- | --- |
| COC(=O)c1ccccc1S(=O)(=O)NC(=O)Nc1nc(C)nc(OC)n1 [Metsulfuron methyl] | 1 | 1 | 1 | 1 | 1 | 10 | 1 | 1 | 0 | 0 | 0 | 2 | 10 | 10 | Min. of label dose of herbicide with effect (Centauréa cýanus [2]; TLC 6 (lipids and terpens)): 1%; Min. of label dose of herbicide with effect (Plantágo lanceoláta [3]; TLC 1 (non-specific compounds)): 1%; Min. of label dose of herbicide with effect (Plantágo lanceoláta [3]; TLC 7 (non-specific compounds)): 10%; Min. visual effect (Centauréa cýanus [5]; at presence of TLC 6 biomarker): 0; Min. visual effect (Centauréa cýanus [5]; at presence of TLC 7 biomarker): 0; Min. visual effect (Lólium perénne [6]; at presence of TLC 1 biomarker): 0; Min. visual effect (Lólium perénne [6]; at presence of TLC 6 biomarker): 0; Min. visual effect (Plantágo lanceoláta [7]; at presence of TLC 1 biomarker): 0; Min. visual effect (Plantágo lanceoláta [7]; at presence of TLC 7 biomarker): 3 |
| CCC(CC)Nc1c([N+](=O)[O-])cc(C)c(C)c1[N+](=O)[O-] [Pendimethalin] | 10 | 1 | – | 1 | 1 | 1 | 1 | 3 | 0 | 0 | 0 | 0 | – | 1 | Min. of label dose of herbicide with effect (Anagallis arvensis [1]; TLC 1 (non-specific compounds)): 10%; Min. of label dose of herbicide with effect (Anagallis arvensis [1]; TLC 4d (amino acids)): 1%; Min. visual effect (Centauréa cýanus [5]; at presence of TLC 2 biomarker): 0; Min. visual effect (Centauréa cýanus [5]; [10]): 0; Min. visual effect (Plantágo lanceoláta [7]; [10]): 0; Days after exposure (biomarker present) (Lólium perénne [8]; TLC 7 (non-specific compounds)): 8, 16 days; Days after exposure (biomarker present) (Lólium perénne [8]; TLC 4d (amino acids)): 4, 8, 16, 32 days; Min. of label dose of herbicide with effect (Lólium perénne [8]; TLC 4d (amino acids)): 1% |
| Bromoxynil | 1 | 10 | 1 | – | – | – | – | – | – | – | – | – | 10 | – | Min. of label dose of herbicide with effect (Anagallis arvensis [1]; TLC 6 (lipids and terpens)): 1%; Min. of label dose of herbicide with effect (Lólium perénne [9]): 1% |
